According to patent US8846898B2, “Phosphinoamidite carboxylates and analogs thereof in the synthesis of oligonucleotide having reduced internucleotide charge” (Lieure Cornu LLC, priority 2000, dated 2014):
[pace] = phosphonoacetate internucleotide linkage

Tests used:
[1] = system: Phosphodiesterase I from Crotalus adamanteu (snake venom phosphodiesterase)
DNase I = DNase I (Bos taurus, UniProt P00639)
Experimental: Radiolabeling of Oligodeoxynucleotides: ODNs were 5′ end-labeled using γ-^32P ATP and T4 polynucleotide kinase (Wu et al., “Purification and Sequence Analysis of Synthetic Oligodeoxyribonucleotides,” in Oligonucleotide Synthesis: A Practical Approach, Gait, Ed. (Oxford University Press, 1990)). […] The radiolabeled ODNs were purified by gel electrophoresis and ethanol precipitation.
Endonuclease Stability: Endonuclease digestion experiments were carried out using DNase I (Boehringer-Mannheim). The assays were performed using a mixture of oligodeoxynucleotide labeled with ^32P at the 5′-end (100,000 cpm) and unlabeled oligodeoxynucleotide (40 pmol) in a buffer containing 40 mM Tris-HCl, pH 7.5, 6 mM MgCl2. Slight excess of the complementary DNA strand (1.2 eq.) was added and the mixture was heated to 95° C. for 5 minutes then chilled on ice for 30 minutes. Enzyme was added to a final concentration of 1 unit/μl (40 μl total reaction volume). The reaction mixture was overlayed with 25 μl of mineral oil and incubated at 37° C. Aliquots (3.5 μl) were removed and quenched by adding 7M urea in TBE buffer (12 μl) and heating to 95° C. for 5 minutes. […]
The mixtures were heated to 95° C. for 5 minutes followed by slow cooling and incubation on ice for 30 minutes. The mixture was equilibrated to room temperature, DNase I added, and the reaction monitored as a function of time. […]

E. coli RNaseH1 = E. coli RNaseH1 (Escherichia coli, UniProt P0A7Y4); experiment: Hydrolysis of RNA heteroduplexes with E. coli RNaseH1; format: biochemical; settings: 5′-32P RNA, two units RNaseH1, four hours at 37° C.
Sequence of E. coli RNaseH1 (P0A7Y4 whole entry): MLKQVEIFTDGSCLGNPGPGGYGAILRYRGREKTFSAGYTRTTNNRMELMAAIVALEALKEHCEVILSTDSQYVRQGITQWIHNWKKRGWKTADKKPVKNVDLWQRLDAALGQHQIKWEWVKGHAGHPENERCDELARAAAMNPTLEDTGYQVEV

Sequence of DNase I (P00639 23-282): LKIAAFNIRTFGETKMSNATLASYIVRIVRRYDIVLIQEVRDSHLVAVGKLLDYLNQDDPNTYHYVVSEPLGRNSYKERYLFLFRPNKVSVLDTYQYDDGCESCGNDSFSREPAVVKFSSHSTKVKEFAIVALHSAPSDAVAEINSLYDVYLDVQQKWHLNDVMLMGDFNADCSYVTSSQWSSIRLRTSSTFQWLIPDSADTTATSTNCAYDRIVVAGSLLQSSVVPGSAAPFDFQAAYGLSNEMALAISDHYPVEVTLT

## phosphonoacetate ODN: 18-mer mixed sequence ODN 5′-CTCAAGTGGGCTGGTGAC-3′ containing internucleotide phosphonoacetate linkages (DNA, all [pace], methylation of C not given here)
[1]
  degradation / hydrolysis products observed on exposure to SVP: No detectable degradation products
DNase I
  degradation / hydrolysis products observed on incubation with DNase I: no degradation products
E. coli RNaseH1
  RNA degraded (converted to hydrolysis products) in the presence of the oligonucleotide and RNaseH1: approximately 66%

## phosphodiester ODN: 18-mer mixed sequence ODN 5′-CTCAAGTGGGCTGGTGAC-3′ containing internucleotide phosphodiester linkages (unmodified DNA) (unmodified DNA) [reference compound]
DNase I
  time to complete degradation by DNase I: ≤ 1 h
